“And” between values parts separate entries of the source, which are not always exact repeats. Equal entries are not always repeated.
What was measured:
Microsome stability = type: in vitro ADME, human
HepDES19 cells = conditions: read-out: HepDES19 CC50; 72 h, MTS; highest concentration tested 100 µM; mean ± SD
Experimental: HepDES19 cells were plated on 96-well tissue culture-treated plates (Greiner) at 1.0 × 10^4 cells per well and incubated for 48 h. Cells were treated with titrated concentrations of compound or 1% DMSO vehicle for 72 h, and cellular viability was measured by 3-(4,5-dimethylthiazol-2-yl)−5-(3-carboxymethoxyphenyl)−2-(4-sulfophenyl)−2H-tetrazolium (MTS) assays, as described previously ([20]). […] Three or more replicate assays were done on different days.

[1] = target: T1, human ribonuclease H1 (huRNase H1) (Homo sapiens, UniProt O60930); assay: Human RNase H1 inhibition, fluorescent biochemical assay
T1 construct: made in house; host or cells: Escherichia coli
T1 sequence (O60930 1-286): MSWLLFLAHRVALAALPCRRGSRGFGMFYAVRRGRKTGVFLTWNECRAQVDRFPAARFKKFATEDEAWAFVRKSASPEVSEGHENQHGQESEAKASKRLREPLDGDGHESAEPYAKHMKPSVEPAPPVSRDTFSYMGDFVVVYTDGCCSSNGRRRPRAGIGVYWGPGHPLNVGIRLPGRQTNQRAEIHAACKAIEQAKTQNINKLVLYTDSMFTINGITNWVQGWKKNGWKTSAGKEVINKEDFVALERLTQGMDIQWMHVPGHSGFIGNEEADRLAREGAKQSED
Experimental: Recombinant human ribonuclease H1 (huRNase H1) was expressed in Escherichia coli and purified by nickel affinity chromatography, as described previously ([30]). […] The heteroduplex substrate was prepared, as described by Ponzar et al. ([30]). Reactions were initiated by the addition of MgCl2 (5 mM final) and were performed on a Biotek Synergy HTX multi-mode plate reader at 28°C.
Maximum rates of fluorescence increase were calculated using the Biotek Gen5 v3.15 software and percentage activity was determined for each compound concentration by subtracting rates from no enzyme reactions and normalizing to DMSO reactions. […] Reactions were performed at least three times on separate days.

plasma proteins = assay: Plasma protein binding, rapid equilibrium dialysis; type: in vitro ADME, bovine; conditions: 10 µM compound, DMEM-F12 with 10% FBS (0.25 mg/mL BSA), 4 h, 37°C
Experimental: Plasma protein binding was performed using the Pierce rapid equilibrium dialysis device (Thermo Fisher) per the manufacturer’s instructions, as described ([27]). Briefly, the sample wells contained DMEM-F12 supplemented with 10% FBS spiked with 10 µM compound, and the buffer wells contained phosphate-buffered saline (PBS). The plate was incubated for 4 h at 37°C with shaking, after which 50 µL was retrieved from the buffer and sample wells and added to ice-cold acetonitrile and the internal standard described above. Samples were matrix-matched with PBS supplemented with 10% FBS or PBS alone, respectively, and centrifuged at 4,000 × g for 5 min to pellet plasma proteins. The supernatants were analyzed by LCMS/MS and percent compound bound was determined, as described previously ([27]).

[2] = Solubility limit, turbidimetric assay; type: physicochemical; conditions: upper limit 200 µM
Experimental: Solubility limits were determined by a turbidimetric assay, as described ([27]), with the solubility limit being defined as the compound concentration where light scattering began to rise. Two or more replicate assays were performed for each compound at each pH on different days.

[3] = Parallel artificial membrane permeability assay (PAMPA); type: in vitro ADME
Experimental: Compound Papp values were determined by normalizing the experimental compound absorbance to the compounds’ absorbances at equilibrium, membrane porosity, buffer volume, and time (s). Two or more replicate assays were obtained on separate days for each pH.

MDCK-MDR1 cells = assay: MDCK-MDR1 permeability assay; type: in vitro ADME; conditions: 10 µM compound, 2 h; for Efflux Ratio (Papp B-A/A-B): MDCK-MDR1 cells, actively effluxed if >2
Experimental: MDCK-MDR1 cells were seeded on 96-well, high protein binding immobilon-P membrane plates (Millipore Sigma) at 2.4 × 10^4 cells per well for 4 days. Media were then decanted, and the cells were equilibrated with Hanks balanced salt solution (HBSS) supplemented with 10 mM CaCl2 and 1 mM MgCl2 for 1 h. Compound (10 µM) was then added to the apical side to assess active transport and to the basolateral side to assess active efflux. The cells were incubated with compound for 2 h with shaking at 37°C. Samples (50 µL) were retrieved from the recipient wells and mixed with 150 µL acetonitrile (ACN) and internal standard (1:1 of 200 ng/mL chloridazon:enalapril). Samples were pelleted at 4,000 × g and the supernatant was analyzed by liquid-chromatography/tandem mass spectrometry (LCMS/MS) analyses. […]. Active efflux was determined by Papp B/A/Papp A/B.
Tight junction formation was assessed by lucifer yellow permeation immediately following sample retrieval. Briefly, lucifer yellow (10 µM) was added to the apical wells and HBSS was added to the basolateral wells for 1 h with shaking at 37°C, after which sample was collected from the basolateral side and read on a Biotek Synergy HTX multi-mode plate reader with 485/20 excitation and 520/20 emission filters defined by the Center Wavelength/band-pass values. The percent lucifer yellow fluorescence was determined by subtracting the HBSS relative fluorescent units (RFU) from the sample RFU and normalizing to the lucifer yellow positive control RFU. Lucifer yellow permeation was determined to be acceptable if ≤3%.

CYP3A4 mRNA expression = assay: CYP3A4 induction, RT-qPCR in HepG2 cells; conditions: 10 µM, 24 or 48 h, normalized to GAPDH and DMSO
Experimental: HepG2 cells were seeded on 12-well, tissue-culture-treated plates (Sarstedt) at 2.5 × 10^5 cells/well for 24 h. Cells were treated with 10 µM compound or 1% DMSO for 48 h with replenishment at 24 h. Cells were rinsed with PBS and lysed at 0, 24, and 48 h using TRI Reagent (Sigma Aldrich). […] Cellular DNA was degraded using DNase I (Invitrogen), according to the manufacturer’s instructions.
Complementary DNA (cDNA) synthesis employed the ProtoScript II First Strand cDNA Synthesis Kit (New England Biolabs) according to the manufacturer’s instructions with an additional incubation step at 25°C for 5 min. Reverse transcriptase-qPCR (RT-qPCR) was performed using a Quantstudio 5 (Thermo Fisher) in a final reaction volume of 20 µL with 4 µL cDNA template, 2× KAPA probe force master mix (Roche), 300 nM probe, and 100 nM forward and reverse primer. CYP3A4 expression was determined by normalizing the experimental sample cycle threshold values to DMSO-treated wells. GAPDH was used as a housekeeping gene.

[4] = tested on: HBV replication (HBV plus-polarity DNA strand); assay: HBV replication inhibition, strand preferential qPCR in hepDES19 cells; type: cell-based, hepatitis B virus; conditions: for EC50: 72 h exposure, HBV plus-polarity strand suppression, highest concentration tested 100 µM, mean ± SD, read-out: HepDES19 EC50
Experimental: HBV replication inhibition was measured in hepDES19 cells following 72 h compound exposure without compound replenishment. EC50 values were determined by HBV plus-polarity strand suppression using a strand preferential qPCR assay, as described previously ([28]). Three or more replicate values were obtained on different days.

CYP3A4 = target: T2, CYP3A4 (Homo sapiens, UniProt P08684); assay: Cytochrome P450 inhibition, Vivid 3A4 DBOMF Green kit; type: in vitro ADME; conditions: 10 µM compound
T2 construct: purchased Thermo Fisher Vivid 3A4 DBOMF Green
T2 sequence (P08684 whole entry): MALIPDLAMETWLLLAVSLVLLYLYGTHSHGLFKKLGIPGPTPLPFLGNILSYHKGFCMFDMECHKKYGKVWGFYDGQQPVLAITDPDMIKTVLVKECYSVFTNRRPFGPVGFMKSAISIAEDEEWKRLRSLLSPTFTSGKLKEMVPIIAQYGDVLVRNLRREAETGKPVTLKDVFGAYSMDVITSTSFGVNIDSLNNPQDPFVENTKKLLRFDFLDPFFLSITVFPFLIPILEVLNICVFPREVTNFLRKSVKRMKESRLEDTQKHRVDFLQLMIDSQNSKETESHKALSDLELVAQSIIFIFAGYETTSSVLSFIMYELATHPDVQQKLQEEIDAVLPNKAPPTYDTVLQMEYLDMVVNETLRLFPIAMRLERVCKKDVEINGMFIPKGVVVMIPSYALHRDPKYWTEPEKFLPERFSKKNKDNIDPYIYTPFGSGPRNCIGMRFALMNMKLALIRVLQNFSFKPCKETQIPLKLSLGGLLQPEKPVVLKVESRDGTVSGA
Experimental: (§1) Compound inhibition of Cytochrome P (CYP) 3A4, 2C9, and 2D6 was determined using Vivid CYP450 screening kits (Thermo Fisher) according to the manufacturer’s instructions, as described previously ([27]). The kits employed were: Vivid 3A4 DBOMF Green, 2C9 BOMF Green, and 2D6 EOMCC Blue. Reactions were initiated by addition of the fluorophore-conjugated substrates with Vivid NADP^+ and were conducted at 37°C using either a Biotek Synergy HTX multi-mode plate reader with 485/20 nm excitation and 520/20 nm emission filters (green-fluorescent substrate), or a Tecan Spark plate reader with monochromator settings at 415/20 nm excitation and 460/20 nm emission (blue-fluorescent substrate) defined by the Center Wavelength/band-pass values. Substrate cleavage was detected every 60 s.
(§2) Compounds were initially screened against each enzyme at 10 µM and maximum rates of fluorescence in RFU were calculated using the Biotek Gen5 v3.11 software. Percent inhibition of experimental compound reactions was normalized to the rate to DMSO vehicle reactions. Positive controls used were: CYP3A4—ketoconazole (Sigma Aldrich), CYP2C9—sulfaphenazole (Cayman Chemical), and CYP2D6—quinidine (Fisher Scientific). […] IC50 values were determined using the four-parameter log[inhibitor] versus response algorithm in GraphPad Prism. […]

CYP2C9 = target: T3, CYP2C9 (Homo sapiens, UniProt P11712); assay: Cytochrome P450 inhibition, Vivid 2C9 BOMF Green kit; type: in vitro ADME; conditions: 10 µM compound
T3 construct: purchased Thermo Fisher Vivid 2C9 BOMF Green
T3 sequence (P11712 whole entry): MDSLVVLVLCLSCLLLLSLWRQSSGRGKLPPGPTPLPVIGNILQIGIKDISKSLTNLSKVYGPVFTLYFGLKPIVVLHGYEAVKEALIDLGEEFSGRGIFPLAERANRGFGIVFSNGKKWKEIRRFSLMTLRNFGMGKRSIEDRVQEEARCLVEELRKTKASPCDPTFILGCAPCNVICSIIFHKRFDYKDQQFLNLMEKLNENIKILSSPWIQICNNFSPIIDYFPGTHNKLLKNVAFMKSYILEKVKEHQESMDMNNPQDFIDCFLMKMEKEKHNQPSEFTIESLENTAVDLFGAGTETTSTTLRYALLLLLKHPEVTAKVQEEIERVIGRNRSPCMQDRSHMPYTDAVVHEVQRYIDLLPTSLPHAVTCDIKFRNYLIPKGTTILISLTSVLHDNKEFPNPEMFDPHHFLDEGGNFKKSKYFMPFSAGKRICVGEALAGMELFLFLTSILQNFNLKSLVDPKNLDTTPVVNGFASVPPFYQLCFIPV
Experimental: as §1, §2

[5] = human liver microsomes, 1 µM compound, 30 min, NADPH
[6] = pH 5 (fed simulated intestinal fluid)
[7] = pH 6.5 (fasted simulated intestinal fluid)

SMILES | CC50 (HepDES19 cells) | Average Sol (solubility limit) [2, 6] | Sol 1 (solubility limit) ([2]; pH 5, replicate 1) | Sol 2 (solubility limit) ([2]; pH 5, replicate 2) | Average Sol (solubility limit) [2, 7] | Sol 1 (solubility limit) ([2]; pH 6.5, replicate 1) | Sol 2 (solubility limit) ([2]; pH 6.5, replicate 2) | Average Sol (solubility limit) ([2]; pH 7.4 (DMEM-F12 with 10% FBS)) | Sol 1 (solubility limit) ([2]; pH 7.4, replicate 1) | Sol 2 (solubility limit) ([2]; pH 7.4, replicate 2) | Avg Papp (PAMPA) ([3]; FeSSIF pH 5) | Interpretation (PAMPA Papp) ([3]; FeSSIF pH 5) | Papp 1 (PAMPA) ([3]; FeSSIF pH 5, replicate 1) | Papp 2 (PAMPA) ([3]; FeSSIF pH 5, replicate 2) | Avg Papp (PAMPA) ([3]; pH 7.4) | Interpretation (PAMPA Papp) ([3]; pH 7.4) | Papp 2 (PAMPA) ([3]; pH 7.4, replicate 2) | Efflux Ratio (Papp B-A/A-B) (MDCK-MDR1 cells) | HepDES19 SI (CC50/EC50) [4] | EC50 [4] | other results
CC(=NOCc1cccc(C)c1)c1c(C)cc(=O)n(O)c1O [Compound 1620] | > 100 µM | > 200 µM | > 200 µM | > 200 µM | > 200 µM | > 200 µM | > 200 µM | > 200 µM | > 200 µM | > 200 µM | 189 nm/s | H (H: Papp > 1*10-6) | 229 nm/s | 149 nm/s | 13.8 nm/s | H (H: Papp > 1*10-6) | 13.8 nm/s | 1.39 | 526 | 0.19 ± 0.087 µM | Intrinsic clearance (Clint) rate category (Microsome stability; human liver microsomes): low (low Clint (µL/min/mg protein) rates (<8.6)); Clearance (intrinsic clearance, Clint) (Microsome stability; [5]): 7.00 µL/min/mg; Half-life (Microsome stability; [5]): >30 min; Selectivity of HBV replication inhibition over huRNase H1 (huRNase H1 IC50 versus HBV EC50) [1]: at least 10 fold; Percent bound (plasma proteins): 85.8 ± 13.2%; Papp 1 (PAMPA) ([3]; pH 7.4, replicate 1): 13.8 nm/s; MDCK-MDR1 Papp category, apical to basolateral (A-B) (MDCK-MDR1 cells): high (high (≥1*10^−6 cm/s)); MDCK-MDR1 Papp category, basolateral to apical (B-A) (MDCK-MDR1 cells): high (high (≥1*10^−6 cm/s)); CYP3A4 mRNA expression increase (CYP3A4 mRNA expression): < 2 fold
CC(=NOCc1ccc(OCc2ccc3ccccc3c2)cc1)c1c(C)cc(=O)n(O)c1O [Compound 1899] | 68.6 ± 24.3 µM | > 200 µM | > 200 µM | > 200 µM | > 200 µM | > 200 µM | > 200 µM | > 200 µM | > 200 µM | > 200 µM | 56.1 nm/s | H (H: Papp > 1*10-6) | 69.3 nm/s | 42.9 nm/s | 18.4 nm/s | H (H: Papp > 1*10-6) | 10.8 nm/s | 2.28 and > 2 | 40.7 | 1.92 ± 0.7 µM | Clearance (intrinsic clearance, Clint) (Microsome stability; human, microsomes): 35.6 µL/min/mg; Half-life (Microsome stability; human, microsomes): 29.6 min; Percent inhibition of CYP3A4 (CYP3A4): ~ 42%; Percent inhibition of CYP2C9 (CYP2C9): 46%; Papp 1 (PAMPA) ([3]; PAMPA, pH 7.4): 22.8 nm/s; Papp 3 (PAMPA) ([3]; pH 7.4, replicate 3): 21.6 nm/s
